TGI and GI50 data for six compounds are collected here from PubChem BioAssay (NCI).

Assay in all cases: growth of human tumour cells (NCI), 48 h
For assay [1], the system named is SF-539 CNS.
Assay [2] relates to HCC-2998 colon.
Assay [3] relates to NCI-H226 lung.
Assay [4] relates to K-562 leukemia.
Assay [5] deals with M14 melanoma.
The test system of assay [6] is UACC-257 melanoma.
The test system of assay [7] is BT-549 breast.
For assay [8], the system named is RPMI-8226 leukemia.
Assay [9] deals with OVCAR-8 ovarian.
Assay [10] deals with MDA-MB-435.

Molecules are shown by their SMILES.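 96-well plates; 48 h exposure; 5 concentrations. Endpoints by linear interpolation between flanking doses. Not reached: highest tested concentration assigned. GI50 is the concentration that inhibits growth by half. TGI denotes the concentration required for complete inhibition of growth.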 Some results are limits rather than exact numbers.

On to `CN(C)c1ccc2cc3ccc(N(C)C)cc3nc2c1`, for which the TGI in [1] stood at 6.53 µM; in [2] it was 2.64 µM; in [3], 19.9 µM; in assay [4], 21.6 µM; in assay [5], 8.15 µM; in assay [6] it was 24.8 µM. The TGI in assay [7] came to 22.1 µM; in assay [8] it was 4.09 µM; in [9] it was 5.62 µM; in assay [10] it was 13 µM.
Take `Nc1nc(-c2ccc(Cl)cc2)cc(-c2ccc(Cl)cc2)c1-c1nc2ccccc2o1`: the GI50 in [1] was 19.9 µM; in assay [2], 16.9 µM; in [3], 19.1 µM; in assay [4], 13.7 µM; in assay [5] it was 17.4 µM; in assay [6], 18.4 µM. Moreover, the GI50 in [7] was 18.1 µM; in assay [8], 13.7 µM; in [9] it was 18.4 µM; in assay [10] it was 18.3 µM. For the same compound, the TGI stood at 35.7 µM in assay [1]; 33.3 µM in [2]; 34.9 µM in assay [3]; 52.3 µM in assay [4]; 34.4 µM in [5]; 37.8 µM in [6]. The TGI was 33.4 µM in assay [7], 28.3 µM in [8], 36.3 µM in assay [9] and 36.1 µM in assay [10].
With `O=C1/C(=C/c2ccc(Cl)cc2)CN(C(=O)CCN2CCC(=NO)CC2)C/C1=C\c1ccc(Cl)cc1`, the GI50 in assay [1] is 1.21 µM; in assay [2], 0.699 µM; in assay [3], 1.35 µM; in assay [4], 0.23 µM; in assay [5], 0.754 µM; in [6] it was 1.67 µM. The GI50 in assay [7] is 1.47 µM; in [8] it was 0.157 µM; in assay [9] it was 0.823 µM; in assay [10], 0.631 µM. Further, the TGI was 2.55 µM in assay [1]; 1.88 µM in assay [2]; 2.75 µM in assay [3]; 2.3 µM in assay [5]; 3.43 µM in assay [6]; 2.85 µM in assay [7]. For the same compound, the TGI in assay [8] is 0.552 µM; in assay [9] it was 2.62 µM; in [10] it was 1.76 µM.
For the compound `Cc1ccc(-c2cc(-c3ccc(C)cc3)nc(N3CCN(CCNc4ccnc5cc(Cl)ccc45)CC3)n2)cc1`, the GI50 in assay [1] was 1.68 µM; in [2], 4.82 µM; in [3], 5.13 µM; in [4], 2.4 µM; in [5] it was 1.9 µM; in assay [6] it was 1.91 µM. The GI50 is 6.06 µM in assay [7], 3.48 µM in assay [8], 2.17 µM in [9] and 1.76 µM in assay [10]. Also, the TGI is 5.84 µM in assay [1]; 16.2 µM in assay [2]; 18.1 µM in [3]; over 50 µM in assay [4]; 8.45 µM in assay [5]; 6.88 µM in [6]. For the same compound, the TGI in assay [7] is 17 µM; in assay [8] it was over 50 µM; in [9] it was 9.65 µM; in assay [10], 6.85 µM.
On to `CCCCCCCCCCC[C@@H](C[C@H]1OC(=O)[C@H]1CCCCCC)OC(=O)[C@@H](CC(C)C)NC=O`, for which the GI50 in assay [1] is 5.48 µM; in assay [2], 5.31 µM; in assay [3], 2.1 µM; in assay [4] it was 4.36 µM; in assay [5], 6.1 µM; in assay [6], 38.4 µM. For the same compound, the GI50 in assay [7] is 1.9 µM; in assay [8], 0.855 µM; in assay [9], 2.5 µM; in assay [10], 5.77 µM. For the same compound, the TGI in assay [1] was 31 µM; in assay [2] it was 27.3 µM; in [3], 7.91 µM; in [4], 47.3 µM; in assay [5] it was 87 µM; in assay [6] it was over 100 µM. Further, the TGI in assay [7] turned out to be 15.9 µM; in assay [8], 8.81 µM; in assay [9] it was 15.7 µM; in [10], 60.3 µM.
Regarding `Cc1ccc2nc3c(n2c1)C(=O)C(=O)c1ccccc1-3`, the GI50 in [1] is 0.164 µM; in assay [2] it was 0.707 µM; in assay [3], 0.371 µM; in assay [4], 0.0612 µM; in assay [5], 0.183 µM; in assay [6], 0.146 µM. For the same compound, the GI50 in [7] is 0.168 µM; in [8] it was 0.18 µM; in assay [9], 0.238 µM; in assay [10], 0.0661 µM. The TGI was 0.326 µM in [1]; 2.19 µM in assay [2]; 1.29 µM in assay [3]; 0.286 µM in assay [4]; 0.34 µM in assay [5]; 0.382 µM in [6]. The TGI was determined as 0.307 µM in assay [7], 0.717 µM in [8], 0.655 µM in assay [9] and 0.137 µM in [10].
